Measurements as given in patent US5073572A, “Bioactive metabolites from cribrochalina vasculum” (Harbor Branch Oceanographic Institution, Inc., priority 1990, dated 1991).
Values after ≈ are worked out from the molar mass of the structure shown.

Tests used:
P388 leukemia cells = test: antiproliferative effect against P388 leukemia cells (MTT); format: cell-based; settings: Mus musculus; murine P388 leukemia cells, 48-h exposure; mean ± S.D., n in parentheses
Experimental: (§1) The crude ethanolic extract and essentially pure compound were tested for toxicity against murine P388 leukemia cells and cells derived from human colon (HT-29) and lung (A549) tumors. P388 cells obtained from Dr. J. Mayo, National Cancer Institute, Bethesda Md., were maintained in Roswell Park Memorial Institute (RPMI) medium 1640 supplemented with 10% horse serum. HT-29 and A-459 human tumor cells were obtained from the American Type Culture Collection (Rockville, Md.) and maintained in RPMI medium 1640 supplemented with 10% fetal bovine serum. All cell lines were cultured in plastic tissue culture flasks and kept in an incubator at 37° C. in humidified air containing 5% CO2. Antibiotic-free stock cultures of P388 cells were subcultured to 10^5 cells/ml by dilution in fresh growth medium at 2 to 3 day intervals. The mean generation time of primary P388 cultures was 14 to 17 hr. HT-29 and A549 cells were subcultured after dissociation with trypsin-EDTA at weekly intervals.
(§2) To assess the antiproliferative effects of agents against P388, HT-29, and A549 cells, 200 μl cultures (96-well tissue culture plates, Nunc, Denmark) were established at 1×10^5 cells/ml (4000 cells/cm^2 for HT-29 and A549) in drug-free medium or medium containing the crude extract at a final dilution of 1:500 of test compound at various concentrations. Solvent for all dilutions was methanol, which was removed from plates under vacuum. All experimental cultures were initiated in medium containing Gentamicin sulfate ([…]; Schering Corporation, Kenilworth, N.J.). After 48-h exposures, P388 cells were enumerated using 3-[4,5-Dimethylthiazol-2-yl]-2,5-diphenyltetrazolium bromide (MTT) as described below (Alley, M. C., et al.[1988] Cancer Res. 48:589).
(§3) To quantitate the effects on cell proliferation, 75 μl of warm growth medium containing 5 mg/ml MTT was added to each well and cultures were returned to the incubator for 90 minutes. To spectrophotometrically quantitate MTT, plates were centrifuged (900×g, 5 minutes), culture fluids removed by aspiration, and 200 μl of acidified isopropanol (2 ml concentrated HCl/liter isopropanol) added per well. The absorbance of the resulting solutions were measured at 570 nm with a plate reader (MR700 Microplate Reader, Dynatech, Laboratories, Chantilly, Va.). […] A linear relationship between tumor cell number and formazan produced was found over the range of cell densities observed in these experiments.

A549 lung tumor cells = test: antiproliferative effect against A549 lung tumor cells (MTT); format: cell-based; settings: human lung tumor cells, mean ± S.D., n in parentheses
Experimental: as §1, §2, §3

murine splenocytes = test: two-way mixed lymphocyte reaction (MLR); format: cell-based; settings: Mus musculus, Splenocyte, percentage of positive MLR control (no compound); for activity at 0.01 µg/well: 0.01 ug/well; for activity at 0.1 µg/well: 0.1 ug/well; for activity at 1 µg/well: 1 ug/well; for activity at 10 µg/well: 10 ug/well
Experimental: The crude ethanolic extract was tested in the two-way mixed lymphocyte reaction (MLR) and a CV-1 cytotoxicity assay at a 1X concentration of the crude extract, using murine splenocytes. Cellular proliferation was measured using incorporation of ^3 H-thymidine.
The pure compounds were tested for immunosuppressive effects in the MLR assay and for specific cytotoxicity effects in the lymphocyte viability (LCV) assay both using murine splenocytes. […] Responses were reported as a percent of the positive MLR or LCV control. As a general rule, a low MLR value combined with a high LCV value indicates immunosuppressive activity.
^a Twoway murine mixed lymphocyte response. Results are expressed as
percentage of the positive MLR control response (no compound).

[1] = lymphocyte viability (LCV) assay; format: cell-based, murine; settings: mouse, splenocytes, percentage of positive LCV control (no compound)
Experimental: The pure compounds were tested for immunosuppressive effects in the MLR assay and for specific cytotoxicity effects in the lymphocyte viability (LCV) assay both using murine splenocytes. Cellular proliferation was determined using incorporation of ^3 H-thymidine and a modified form of the M. T. T. assay (Mosmann, T. [1983] "Rapid colorimetric assay for cellular growth and survival: Application to proliferation and cytotoxicity assays," J. Immunol. Methods, 65:55-63). Responses were reported as a percent of the positive MLR or LCV control. As a general rule, a low MLR value combined with a high LCV value indicates immunosuppressive activity.
^b Viability (LCV) of lymphocytes as measured by metabolism of M.T.T.
Results are expressed as a percentage of the positive LCV control respons

HT-29 colon tumor cells = test: antiproliferative effect against HT-29 colon tumor cells (MTT); format: cell-based; settings: human colon tumor cells, mean ± S.D., n in parentheses
Experimental: as §1, §2, §3

SMILES	IC50 (P388 leukemia cells) [µg/mL]	IC50 (A549 lung tumor cells) [µg/mL]	IC50 (HT-29 colon tumor cells) [µg/mL]	activity at 0.01 µg/well (murine splenocytes) [%]	activity at 0.1 µg/well (murine splenocytes) [%]	activity at 1 µg/well (murine splenocytes) [%]	activity at 10 µg/well (murine splenocytes) [%]	viability ([1]; 0.01 ug/well) [%]	viability ([1]; 0.1 ug/well) [%]	viability ([1]; 1 ug/well) [%]	viability ([1]; 10 ug/well) [%]
C#CC(O)C=CCCCCCCCCCCC(C)CCCC (stereo not drawn) [SP10100]	1.58 ± 0.51 (≈ 5.15 µM)	1.56 ± 0.06 (≈ 5.09 µM)	0.86 ± 0.06 (≈ 2.81 µM)	21	0	0	0	78	42	12	8
C#CC(O)C=CCCCCCCCCCC=CCCCCC(C)C (stereo not drawn) [SP10102]	1.63 ± 0.29 (≈ 4.9 µM)	2.9 ± 0.34 (≈ 8.72 µM)	1.46 ± 0.06 (≈ 4.39 µM)	20	0	0	0	67	45	15	0
C#CC(O)C=CCCCCCCCCCC=CCCCCCC (stereo not drawn) [SP10099]	1.23 ± 0.53 (≈ 3.86 µM)	1.75 ± 0.06 (≈ 5.49 µM)	1.66 ± 0.15 (≈ 5.21 µM)	33	0	0	0	67	34	13	22

The next lines start with results.

IC50 (P388 leukemia cells) [µg/mL]	IC50 (A549 lung tumor cells) [µg/mL]	IC50 (HT-29 colon tumor cells) [µg/mL]	SMILES	activity at 0.01 µg/well (murine splenocytes) [%]	activity at 0.1 µg/well (murine splenocytes) [%]	activity at 1 µg/well (murine splenocytes) [%]	activity at 10 µg/well (murine splenocytes) [%]	viability ([1]; 0.01 ug/well) [%]	viability ([1]; 0.1 ug/well) [%]	viability ([1]; 1 ug/well) [%]	viability ([1]; 10 ug/well) [%]
1.21 ± 0.73 (≈ 4.14 µM)	1.6 ± 0.1 (≈ 5.47 µM)	1.66 ± 0.47 (≈ 5.68 µM)	C#CC(O)C=CCCCCCCCCCCCCCCC (stereo not drawn) [SP10098]	24	0	0	0	80	61	21	2
1.44 ± 0.28 (≈ 4.7 µM)	2.3 ± 0.7 (≈ 7.5 µM)	1.06 ± 0.11 (≈ 3.46 µM)	C#CC(O)C=CCCCCCCCCCCCCCC(C)C (stereo not drawn) [SP10101]	21	0	0		82	49	7	10
